Laboratory results from ChEMBL document CHEMBL1143392, “Synthesis and cyclooxygenase inhibition of various (aryl-1,2,3-triazole-1-yl)-methanesulfonylphenyl derivatives” (Bioorg Med Chem, 2009).

Columns and labels:
[1] = target: T1, Prostaglandin G/H synthase 2 (Homo sapiens, UniProt P35354); assay: Inhibition of COX2 by enzyme immunoassay
T1 sequence (P35354 whole entry): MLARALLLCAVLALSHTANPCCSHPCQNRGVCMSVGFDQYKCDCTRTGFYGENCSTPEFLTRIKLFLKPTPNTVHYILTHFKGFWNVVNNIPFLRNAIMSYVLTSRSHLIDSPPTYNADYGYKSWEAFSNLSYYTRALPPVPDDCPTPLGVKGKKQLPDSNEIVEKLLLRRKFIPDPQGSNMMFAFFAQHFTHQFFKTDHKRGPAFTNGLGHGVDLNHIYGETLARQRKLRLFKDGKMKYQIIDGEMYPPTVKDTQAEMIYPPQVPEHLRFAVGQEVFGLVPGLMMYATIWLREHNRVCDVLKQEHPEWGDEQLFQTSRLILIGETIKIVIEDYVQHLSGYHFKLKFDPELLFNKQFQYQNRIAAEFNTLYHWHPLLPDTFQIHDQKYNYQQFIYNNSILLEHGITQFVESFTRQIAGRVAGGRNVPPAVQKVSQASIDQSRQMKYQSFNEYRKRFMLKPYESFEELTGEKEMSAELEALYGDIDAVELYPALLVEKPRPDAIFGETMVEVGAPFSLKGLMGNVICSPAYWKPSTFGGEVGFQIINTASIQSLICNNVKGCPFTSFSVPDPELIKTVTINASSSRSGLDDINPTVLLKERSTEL

[2] = target: Prostaglandin G/H synthase 1 (Homo sapiens, UniProt P23219); assay: Inhibition of COX1 by enzyme immunoassay
Chain of Prostaglandin G/H synthase 1 (P23219 whole entry): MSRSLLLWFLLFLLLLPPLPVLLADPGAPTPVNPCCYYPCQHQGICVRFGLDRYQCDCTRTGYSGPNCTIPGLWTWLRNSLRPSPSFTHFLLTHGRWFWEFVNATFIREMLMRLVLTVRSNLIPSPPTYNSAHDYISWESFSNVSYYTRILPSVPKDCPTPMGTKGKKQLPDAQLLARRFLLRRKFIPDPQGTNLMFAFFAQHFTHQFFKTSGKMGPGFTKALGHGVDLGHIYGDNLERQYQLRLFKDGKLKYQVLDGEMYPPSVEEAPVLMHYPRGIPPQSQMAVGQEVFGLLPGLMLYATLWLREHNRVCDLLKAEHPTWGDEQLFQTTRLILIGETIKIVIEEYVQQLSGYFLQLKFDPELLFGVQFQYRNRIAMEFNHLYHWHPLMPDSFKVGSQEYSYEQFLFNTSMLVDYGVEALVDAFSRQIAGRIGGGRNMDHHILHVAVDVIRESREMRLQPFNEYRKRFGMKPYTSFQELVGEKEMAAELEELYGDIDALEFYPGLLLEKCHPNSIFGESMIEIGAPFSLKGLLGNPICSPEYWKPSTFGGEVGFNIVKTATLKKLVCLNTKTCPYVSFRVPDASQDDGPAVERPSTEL

[3] = Selectivity index, ratio of IC50 for COX1 to IC50 COX2

Row | Structure (SMILES) | IC50 [1] | IC50 [2] | Ratio IC50 [3]
1 | CN(C)c1ccc(-c2cn(-c3ccc(S(C)(=O)=O)cc3)nn2)cc1 | > 10 µM | > 100 µM | –
2 | Cc1ccc(-c2cn(-c3ccc(S(C)(=O)=O)cc3)nn2)cc1 | 2.5 µM | 45 µM | 18
3 | CS(=O)(=O)c1ccc(-n2cc(-c3ccc(Cl)cc3)nn2)cc1 | 0.19 µM | 12.2 µM | 64
4 | CS(=O)(=O)c1ccc(-n2cc(-c3ccc(F)cc3)nn2)cc1 | 0.21 µM | 12.5 µM | 59
5 | CS(=O)(=O)c1ccc(-n2nncc2-c2ccccc2)cc1 | 0.11 µM | 0.81 µM | 7.5
6 | CS(=O)(=O)c1ccc(-n2cc(-c3ccccc3)nn2)cc1 | 0.15 µM | 20.8 µM | 139
7 | CS(=O)(=O)c1ccc(-n2nncc2-c2ccc(F)cc2)cc1 | 0.03 µM | 0.91 µM | 30.3
8 | COc1ccc(-c2cnnn2-c2ccc(S(C)(=O)=O)cc2)cc1 | 0.17 µM | 0.83 µM | 4.9
9 | CS(=O)(=O)c1ccc(-n2nncc2-c2ccc(Cl)cc2)cc1 | 0.04 µM | 0.7 µM | 17.5
10 | Cc1ccc(-c2cnnn2-c2ccc(S(C)(=O)=O)cc2)cc1 | 0.12 µM | 0.78 µM | 6.5
11 | CN(C)c1ccc(-c2cnnn2-c2ccc(S(C)(=O)=O)cc2)cc1 | 0.36 µM | 0.84 µM | 2.3
12 | COc1ccc(-c2cn(-c3ccc(S(C)(=O)=O)cc3)nn2)cc1 | 2.5 µM | 10 µM | 4
13 | COc1ccc(C2=C(c3ccc(S(C)(=O)=O)cc3)CCC2)cc1 | – | 5 µM | –
